The text below walks through data of patent publication US12692230B2, “(1 h-indol-5-yl)acrylamide derivatives as inhibitors of TEAD proteins and the hippo-YAP1/TAZ signaling cascade for the treatment of cancer” (Sanofi, priority 2020, dated 2026).

Molecules are shown by their SMILES.

The experiment deals with TEAD responsive promoter element (8XGTIIC-Luciferase; YAP1-TEAD and TAZ-TEAD activity). The experiment is described as follows: TEAD-Luciferase reporter assay. It is filed as cell-based. To be noted: Homo sapiens; luciferase activity in tumor cell lines with stable integration of the 8XGTIIC-Luciferase construct; 10 doses between 1 and 10000 nM, 48 hrs. The text has this: TEAD-Luciferase Reporter Assay
Luciferase-based gene reporter assays were used, employing the TEAD responsive promoter element that are stably integrated to different human tumor cell lines in order to monitor YAP1-TEAD and TAZ-TEAD activity and to study YAP1/TAZ-TEAD activity modulation by small molecule compounds. Luciferase-based gene reporter assays employing the GAPDH promoter element and stably integrated to different human tumor cell lines are used as counter screen control cell lines.
Tumor cell lines with stable integration of the 8XGTIIC-Luciferase construct (Dupont et al., Nature 2011) or the GAPDH-Luciferase control plasmid, are seeded in culture medium in 96-well plates at a density of 8000 cells/well. Following an overnight incubation in a 37° C., 5% CO2 growth chamber, cells are treated with compounds described above at 10 doses ranging between 1 and 10000 nM for 48 hrs. After compound incubation, cells are lysed with Bright-Glo Luciferase Assay System (Promega E2620) and luciferase activity is measured using a luminescent plate reader.
The inhibitory activity of the compounds with respect to luciferase activity is given by the concentration which inhibits 50% of activity of non-treated cells. IC50s are determined with a nonlinear regression model on XLfit software analysis (IDBS, UK).
For orientation: In a reporter assay the amount or activity of a reporter protein is the signal.
Usually IC50 stands for the point on the concentration scale where inhibition reaches its midpoint. Read a high IC50 as lower potency. Turning to `C=CC(=O)Nc1ccc2c(ccn2-c2cccc(C(F)(F)F)c2)c1` [Example 43, N-(1-(3-(trifluoromethyl)phenyl)-1H-indol-5-yl)acrylamide], the half-maximal inhibitory concentration (IC50) amounted to 36 nM.

The molecule `C=CC(=O)Nc1ccc2c(ccn2-c2ccc(C(F)(F)F)cc2)c1` [Example 44, N-(1-(4-(trifluoromethyl)phenyl)-1H-indol-5-yl)acrylamide] registered an IC50 of 8 nM.

Regarding `C=CC(=O)Nc1ccc2c(ccn2-c2ccc(C(F)(F)F)nc2)c1` [Example 45, N-(1-(6-(trifluoromethyl)pyridin-3-yl)-1H-indol-5-yl)acrylamide], half-maximal inhibition (IC50) was put at 106 nM.

Turning to `C=CC(=O)Nc1ccc2c(ccn2-c2ccc(C(F)(F)F)cn2)c1` [Example 46, N-(1-(5-(trifluoromethyl)pyridin-2-yl)-1H-indol-5-yl)acrylamide], the IC50 was more than 10000 nM.

The molecule `C=CC(=O)Nc1ccc2c(ccn2-c2cccnc2)c1` [Example 47, N-(1-(pyridin-3-yl)-1H-indol-5-yl)acrylamide] gave an IC50 of more than 10000 nM.

As for `C=CC(=O)Nc1ccc2c(ccn2-c2ccc(F)cc2)c1` [Example 48, N-(1-(4-fluorophenyl)-1H-indol-5-yl)acrylamide], the IC50 was more than 10000 nM.

The molecule `C=CC(=O)Nc1ccc2c(ccn2-c2ccc(F)c(F)c2)c1` [Example 49, N-(1-(3,4-difluorophenyl)-1H-indol-5-yl)acrylamide] gave an IC50 of more than 10000 nM.

Consider `C=CC(=O)Nc1ccc2c(ccn2-c2cccc(S(C)(=O)=O)c2)c1` [Example 50, N-(1-(3-(methylsulfonyl)phenyl)-1H-indol-5-yl)acrylamide], for which the IC50 was determined as 4680 nM.

The molecule `C=CC(=O)Nc1ccc2c(ccn2-c2ccc(C#N)cc2)c1` [Example 51, N-(1-(4-cyanophenyl)-1H-indol-5-yl)acrylamide] came in with an IC50 of 313 nM.

As for `C=CC(=O)Nc1ccc2c(ccn2Cc2cc(F)cc(F)c2)c1` [Example 52, N-(1-(3,5-difluorobenzyl)-1H-indol-5-yl)acrylamide], the IC50 came out at 41 nM.

With `C=CC(=O)Nc1ccc2c(ccn2Cc2ccc(F)c(F)c2)c1` [Example 53, N-(1-(3,4-difluorobenzyl)-1H-indol-5-yl)acrylamide], half-maximal inhibition (IC50) required 33 nM.

`C=CC(=O)Nc1ccc2c(ccn2Cc2cccc(C#N)c2)c1` [Example 54, N-(1-(3-cyanobenzyl)-1H-indol-5-yl)acrylamide] registered an IC50 of 388 nM.

`C=CC(=O)Nc1ccc2c(ccn2Cc2ccc(C(F)(F)F)o2)c1` [Example 55, N-(1-((5-(trifluoromethyl)furan-2-yl)methyl)-1H-indol-5-yl)acrylamide] came in with an IC50 of 185 nM.

`C=CC(=O)Nc1ccc2c(ccn2Cc2cscn2)c1` [Example 56, N-(1-(thiazol-4-ylmethyl)-1H-indol-5-yl)acrylamide] displayed an IC50 not below 10000 nM.

As to `C=CC(=O)Nc1ccc2c(ccn2Cc2csc(C(F)(F)F)n2)c1` [Example 57, N-(1-((2-(trifluoromethyl)thiazol-4-yl)methyl)-1H-indol-5-yl)acrylamide], 191 nM corresponded to half-maximal inhibition (IC50).

`C=CC(=O)Nc1cccc2ccn(Cc3cccc(C(F)(F)F)c3)c12` [Example 58, N-(1-(3-(trifluoromethyl)benzyl)-1H-indol-7-yl)acrylamide] yielded an IC50 of 2010 nM.

`C=CC(=O)Nc1ccc2c(ccn2Cc2cccc(S(C)(=O)=O)c2)c1` [Example 59, N-(1-(3-(methylsulfonyl)benzyl)-1H-indol-5-yl)acrylamide]: the IC50 came out at 2870 nM.

Molecule `C=CC(=O)Nc1ccc2c(c1)c(COC)cn2Cc1cccc(C(F)(F)F)c1` [Example 60, N-(3-(methoxymethyl)-1-(3-(trifluoromethyl)benzyl)-1H-indol-5-yl)acrylamide] came in with an IC50 of 88 nM.

`C=CC(=O)Nc1ccc2c(c1)c(C(=O)OC)cn2Cc1cccc(C(F)(F)F)c1` [Example 61, methyl 5-acrylamido-1-(3-(trifluoromethyl)benzyl)-1H-indole-3-carboxylate] came in with an IC50 of 41 nM.

In turn, `C=CC(=O)Nc1ccc2ccn(-c3cccc(C(F)(F)F)c3)c2c1` [Example 62, N-(1-(3-(trifluoromethyl)phenyl)-1H-indol-6-yl)acrylamide] returned an IC50 of 64 nM.

For the molecule `C=CC(=O)Nc1ccc2c(ccn2-c2ccc(S(F)(F)(F)(F)F)cc2)c1` [Example 63, N-(1-(4-(pentafluoro-λ6-sulfanyl)phenyl)-1H-indol-5-yl)acrylamide], it took 29 nM to reach half-maximal inhibition (IC50).

Molecule `C=CC(=O)Nc1ccc2ccn(-c3ccc(C(F)(F)F)cc3)c2c1` [Example 64, N-(1-(4-(trifluoromethyl)phenyl)-1H-indol-6-yl)acrylamide] returned an IC50 of 108 nM.

Regarding `C=CC(=O)Nc1ccc2c(ccn2-c2ccc(C(F)(F)F)cc2C)c1` [Example 65, N-(1-(2-methyl-4-(trifluoromethyl)phenyl)-1H-indol-5-yl)acrylamide], the half-maximal inhibitory concentration (IC50) came out at 59 nM.

For `C=CC(=O)Nc1ccc2c(ccn2-c2cc(F)cc(F)c2)c1` [Example 66, N-(1-(3,5-difluorophenyl)-1H-indol-5-yl)acrylamide], the IC50 amounted to 1850 nM.

In turn, `C=CC(=O)Nc1ccc2c(ccn2-c2cncc(F)c2)c1` [Example 67, N-(1-(5-fluoropyridin-3-yl)-1H-indol-5-yl)acrylamide] yielded an IC50 of 8540 nM.

Molecule `C=CC(=O)Nc1ccc2c(ccn2-c2ccnc(C(F)(F)F)c2)c1` [Example 68, N-(1-(2-(trifluoromethyl)pyridin-4-yl)-1H-indol-5-yl)acrylamide] had an IC50 of 1090 nM.

`C=CC(=O)Nc1ccc2c(c1)c(C)cn2-c1ccc(C(F)(F)F)cc1` [Example 69, N-(3-methyl-1-(4-(trifluoromethyl)phenyl)-1H-indol-5-yl)acrylamide] registered an IC50 of 9 nM.

`C=CC(=O)Nc1ccc2c(c1)cc(C)n2-c1ccc(C(F)(F)F)cc1` [Example 70, N-(2-methyl-1-(4-(trifluoromethyl)phenyl)-1H-indol-5-yl)acrylamide] yielded an IC50 of 12 nM.

As for `C=CC(=O)N(C)c1ccc2c(c1)cc(C)n2-c1ccc(C(F)(F)F)cc1` [Example 71, N-methyl-N-[2-methyl-1-[4-(trifluoromethyl)phenyl]indol-5-yl]acrylamide], the IC50 is 24 nM.

`C=CC(=O)Nc1ccc2c(c1)c(COC)cn2-c1ccc(C(F)(F)F)cc1` [Example 72, N-(3-(methoxymethyl)-1-(4-(trifluoromethyl)phenyl)-1H-indol-5-yl)acrylamide] displayed an IC50 of 15 nM.

In turn, `C=CC(=O)Nc1cc2ccn(-c3ccc(C(F)(F)F)cc3)c2cc1F` [Example 73, N-(6-fluoro-1-(4-(trifluoromethyl)phenyl)-1H-indol-5-yl)acrylamide] returned an IC50 of 244 nM.

The molecule `C=CC(=O)N(C)c1ccc2c(ccn2-c2ccc(C(F)(F)F)cc2)c1` [Example 74, N-methyl-N-(1-(4-(trifluoromethyl)phenyl)-1H-indol-5-yl)acrylamide] returned an IC50 of 106 nM.

The molecule `C/C=C/C(=O)Nc1ccc2c(ccn2-c2ccc(C(F)(F)F)cc2)c1` [Example 75, (E)-N-(1-(4-(trifluoromethyl)phenyl)-1H-indol-5-yl)but-2-enamide] had an IC50 of 458 nM.

`CN(C)C/C=C/C(=O)Nc1ccc2c(ccn2-c2ccc(C(F)(F)F)cc2)c1` [Example 76, (E)-4-(dimethylamino)-N-(1-(4-(trifluoromethyl)phenyl)-1H-indol-5-yl)but-2-enamide] had an IC50 of 3830 nM.

As for `C=CC(=O)Nc1cc2ccn(-c3ccc(C(F)(F)F)cc3)c2cc1Cl` [Example 77, N-(6-chloro-1-(4-(trifluoromethyl)phenyl)-1H-indol-5-yl)acrylamide], the IC50 worked out at 534 nM.

For the molecule `C=CC(=O)Nc1cc2ccn(Cc3cccc(C(F)(F)F)c3)c2cc1Cl` [Example 78, N-(6-chloro-1-(3-(trifluoromethyl)benzyl)-1H-indol-5-yl)acrylamide], 141 nM corresponded to half-maximal inhibition (IC50).

Molecule `C=CC(=O)Nc1cc(Cl)c2c(ccn2Cc2cccc(C(F)(F)F)c2)c1` [Example 79, N-(7-chloro-1-(3-(trifluoromethyl)benzyl)-1H-indol-5-yl)acrylamide] had an IC50 of 85 nM.

`C=CC(=O)Nc1cc2ccn(Cc3cccc(C(F)(F)F)c3)c2cc1F` [Example 80, N-(6-fluoro-1-(3-(trifluoromethyl)benzyl)-1H-indol-5-yl)acrylamide] had an IC50 of 18 nM.

`C=CC(=O)Nc1cc(Cl)c2c(ccn2-c2ccc(C(F)(F)F)cc2)c1` [Example 81, N-(7-chloro-1-(4-(trifluoromethyl)phenyl)-1H-indol-5-yl)acrylamide] returned a 50% inhibitory concentration (IC50) of 68 nM.

`C=CC(=O)Nc1ccc2c(c1)c(CO)cn2-c1ccc(C(F)(F)F)cc1` [Example 82, N-(3-(hydroxymethyl)-1-(4-(trifluoromethyl)phenyl)-1H-indol-5-yl)acrylamide] came in with an IC50 of 158 nM.

Molecule `C=CC(=O)Nc1ccc2c(c1)c(C(N)=O)cn2Cc1cccc(C(F)(F)F)c1` [Example 83, 5-Acrylamido-1-(3-(trifluoromethyl)benzyl)-1H-indole-3-carboxamide] showed an IC50 of 1790 nM.

`C=CC(=O)Nc1ccc2c(c1)c(C(N)=O)cn2-c1ccc(C(F)(F)F)cc1` [Example 84, 5-Acrylamido-1-(4-(trifluoromethyl)phenyl)-1H-indole-3-carboxamide] registered an IC50 of 620 nM.
